In patent publication US9168306B2, “Drug delivery agents comprising cyclodextrin covalently linked to a gemini surfactant, and pharmaceutical compositions comprising the same” (University of Saskatchewan, priority 2011, dated 2015):
Several values for one entry are separate records, joined by “and”; a condition that tells them apart may be missing. Equal entries are not always repeated.

Columns and labels:
A375 cells [1] = experiment: Flow cytometry apoptosis assay (Annexin V-FITC / propidium iodide); type: cell-based, human; settings: delivery agent alone as control, 14 μM; 48 h
Method: A375 cells at the second passage were seeded at a density of 1×10^6 cells per well in 6 well tissue culture-treated plates. Cells were incubated at 37° C. in a humidified incubator with 5% CO2 and 95% air, overnight. […] The resveratrol and sodium butyrate controls were used to calibrate the flow cytometer for cell cycle arrest in the A375 cell. All treatments were performed in triplicate wells. Cells were incubated with the formulations and controls for 48 h. All cells, floating and adherent, were collected, the triplicate wells pooled and washed in PBS. The cell populations were divided into two. Half of the cells was fixed in 70% ethanol for 2 h, washed twice in 300 μg/mL RNase A (Qiagen) in PBS. The cell pellet was resuspended in PBS and stained with propidium iodide, 20 μg/mL (Sigma). […]
(§1) Flow cytometry was performed with a FacsCalibur instrument (BD Biosciences). The treatment groups were analyzed using ModFit LT flow cytometry modeling software (Verity Software House, Inc) after gating the area of non-treated cells by excluding aggregates and debris.
The type of cell death of the A375 cells after treatment of the compositions was captured by performing the apoptosis assay (as shown in FIG. 7). […] Apoptosis was measured by dual staining of the cells with Annexin V-FITC and propidium iodide. […]

[2] = Size and ζ-potential measurement of compositions (Zetasizer Nano ZS); type: physicochemical
Method: Due to their low solubility in water, for the in vitro testing, each drug was dissolved in dimethylsulfoxide (DMSO, Sigma) at 2 mM concentration. The drug was added at increasing concentrations of 0.01-200 μM to the supplemented media with the final DMSO concentration of 2% exposed to the cells. For the formulations, CD or CDgemini was dissolved in water (10 mM) and the drugs were dissolved in methanol (2 mM). The delivery agent to drug mole ratio was maintained at 2:1. The solvent mixture was evaporated in a rotary evaporator under vacuum and the residue was reconstituted in water. Samples were dispersed by sonication for 2 h and stored overnight at 4° C. Samples were re-sonicated, prior to diluting in supplemented media, for 15 min.
Compositions were prepared as described above. The size and ζ-potential of the particles were measured with a Zetasizer Nano ZS instrument (Malvern Instruments, UK). Results are reported as the mean of 3-5 measurements±standard deviations.

A375 cells [3] = experiment: Flow cytometry cell cycle analysis (propidium iodide); type: cell-based, human; settings: delivery agent alone as control, 14 μM; 48 h
Method: A375 cells at the second passage were seeded at a density of 1×10^6 cells per well in 6 well tissue culture-treated plates. Cells were incubated at 37° C. in a humidified incubator with 5% CO2 and 95% air, overnight. […] The resveratrol and sodium butyrate controls were used to calibrate the flow cytometer for cell cycle arrest in the A375 cell. All treatments were performed in triplicate wells. Cells were incubated with the formulations and controls for 48 h. All cells, floating and adherent, were collected, the triplicate wells pooled and washed in PBS. The cell populations were divided into two. Half of the cells was fixed in 70% ethanol for 2 h, washed twice in 300 μg/mL RNase A (Qiagen) in PBS. The cell pellet was resuspended in PBS and stained with propidium iodide, 20 μg/mL (Sigma). The other half of the cells was suspended in binding buffer and stained as per the Annexin V-FITC Apoptosis Detection Kit (BioVision) protocol.
as §1

[4] = system: a number of cancer cells, including human SK-MEL-5 cells; settings: literature values; cited from earlier work
[5] = Transmission electron microscopy of compositions; type: physicochemical
Method: Drug/CDgemini conjugates prepared for the size measurements were used for TEM. Aliquots of 10 μL samples were dropped onto 300-mesh formvar-coated copper grids (SPI Supplies) and incubated for 5 min at room temperature. The water was wicked off the grids with absorbent tissue and the grids were stained with 1% phosphotungstic acid for 2 min. The stain was removed and the grids were dried at room temperature for 15 min. The samples were examined with a Philips CM10 electron microscope at an accelerating voltage of 80 kV.

Particle size Peak 1 Intensity [2] | ζ potential [2] | Particle size Peak 1 ([2]; mean of 3-5 measurements ± SD) | PDI ([2]; polydispersity index) | size of particles in TEM images [5] | Structure (SMILES) | apoptosis, of the total population (A375 cells [1]) | formation of supramolecular aggregates [2] | cells in G0/G1 (A375 cells [3]) | cells in S-phase (A375 cells [3]) | cytotoxic concentrations [4]
– | – | – | – | – | OC[C@H]1O[C@@H]2O[C@H]3[C@H](O)[C@@H](O)[C@@H](O[C@H]4[C@H](O)[C@@H](O)[C@@H](O[C@H]5[C@H](O)[C@@H](O)[C@@H](O[C@H]6[C@H](O)[C@@H](O)[C@@H](O[C@H]7[C@H](O)[C@@H](O)[C@@H](O[C@H]8[C@H](O)[C@@H](O)[C@@H](O[C@H]1[C@H](O)[C@H]2O)O[C@@H]8CO)O[C@@H]7CO)O[C@@H]6CO)O[C@@H]5CO)O[C@@H]4CO)O[C@@H]3CO [CD, β-Cyclodextrin, reference compound] | 25% | neither CD nor drug/CD conjugates formed supramolecular aggregates | 56% | 43% | –
– | – | – | – | – | N[C@@H](Cc1ccc(N(CCCl)CCCl)cc1)C(=O)O [melphalan] | – | – | – | – | 52 to 219 µM
100% | 5.74±0.53 mV and 5.7 ± 0.5 mV | 153.6±4.3 nm | 0.2 | 100-150 nm | CCCCCCCCCCCC[N+](C)(C)CCCN(CCC[N+](C)(C)CCCCCCCCCCCC)C(=O)CCC(=O)OCC1OC2OC3C(CO)OC(OC4C(CO)OC(OC5C(CO)OC(OC6C(CO)OC(OC7C(CO)OC(OC8C(CO)OC(OC1C(O)C2O)C(O)C8O)C(O)C7O)C(O)C6O)C(O)C5O)C(O)C4O)C(O)C3O.[Cl-].[Cl-] (stereo not drawn) [CDgemini, [mono-6-o-(3{bis(3-(N-dodecyl-N,N-dimethylamino)-propyl)-carbamoyl}propanoyl)-beta-cyclodextrin]^2+] | 31% | – | 65% | 35% | –
